In the NIST ThermoML archive (doi:10.1021/acs.jced.5b00343):
± gives the expanded uncertainty stated by the source.

Tests used:
[1] = 101 kPa, Liquid; for speed of sound: Frequency=1.5 MHz, Sing-around technique in a fixed-path interferometer; for mass density: Vibrating tube method
[2] = refractive index (Na D-line) (dimensionless); conditions: 101 kPa, Liquid, Standard Abbe refractometry

## CCCCO [butan-1-ol]
[1]; 303.15 K
  speed of sound: 1222.7 ± 1.5 m/s
  mass density: 802.01 ± 0.15 kg/m3
[1]; 308.15 K
  speed of sound: 1206.3 ± 1.5 m/s
  mass density: 798.14 ± 0.15 kg/m3
[1]; 313.15 K
  speed of sound: 1189.4 ± 1.5 m/s
  mass density: 794.22 ± 0.15 kg/m3
[1]; 318.15 K
  speed of sound: 1172.8 ± 1.5 m/s
  mass density: 790.28 ± 0.15 kg/m3
[1]; 323.15 K
  speed of sound: 1156.7 ± 1.5 m/s
  mass density: 786.29 ± 0.16 kg/m3
[2]; 303.15 K
  refractive index: 1.3948 ± 0.0004
[2]; 308.15 K
  refractive index: 1.3927 ± 0.0004
[2]; 313.15 K
  refractive index: 1.3907 ± 0.0004
[2]; 318.15 K
  refractive index: 1.3875 ± 0.0004
[2]; 323.15 K
  refractive index: 1.3848 ± 0.0004
